Values joined by “and” are separate entries in the source; they are usually repeats but may differ in a detail not shown here. Equal values may be shown once. Read-outs that look alike come from different tables or passages of the source.
How the values were obtained:
VEGFR (Flk-1/KDR) = assay: VEGF-stimulated Flk-1 tyrosine phosphorylation in Flk-1/NIH 3T3 cells; type: cell-based, human
Experimental: (§1) Inhibition of growth factor-dependent receptor tyrosine phosphorylation by GFBs. Starved Flk-1/KDR-overexpressing NIH 3T3 cells (Flk-1/NIH 3T3) or NIH 3T3 cells were pretreated with GFBs for 5 min before stimulation with VEGF (50 ng/ml) or PDGF-BB (10 ng/ml) for 10 min, respectively. The cells were then harvested and lysed, and proteins from the lysates were separated by SDS-PAGE and transferred to nitrocellulose. Membranes then were either immunoblotted with anti-phospho-VEGFR2 antibody (Cell Signaling Technologies, Beverly, Mass.) for activated Flk-1 or anti-phospho-tyrosine antibody (4G10, Upstate Biotechnology, Lake Placid, N.Y.) for activated PDGFR. Phosphotyrosine Flk-1 and PDGFR were quantified using a Bio-Rad Model GS-700 Imaging Densitometer (Bio-Rad Laboratories, Inc, Hercules, Calif.) (Blaskovich, M. A. et al. Nat Biotechnol, 2000, 18:1065-70).

PDGFR = assay: PDGF-stimulated PDGFR tyrosine phosphorylation in NIH 3T3 cells; type: cell-based, mouse
Experimental: as §1

pancreatic tumors = conditions: Bergers et al. 2003; cited from earlier work
[1] = system: metastatic colorectal cancer; conditions: patients with metastatic colorectal cancer; cited from earlier work
[2] = VEGF 50 ng/ml stimulated Flk-1 tyrosine phosphorylation, read-out: IC50 (μM) VEGFR
[3] = PDGF-BB 10 ng/ml stimulated receptor tyrosine phosphorylation, NIH 3T3 cells; read-out: IC50 (μM) PDGFR
[4] = read-out: IC50 (μM) VEGFR, VEGF 50 ng/ml stimulated Flk-1 tyrosine phosphorylation
[5] = read-out: IC50 (μM) PDGFR; PDGF-BB 10 ng/ml stimulated receptor tyrosine phosphorylation, NIH 3T3 cells

| IC50 (VEGFR (Flk-1/KDR); [2]) [µM] | IC50 (PDGFR; [3]) | Compound | other results |
| --- | --- | --- | --- |
| 4.96 ± 0.34 | 2.62 ± 0.5 µM | CCCCOc1c2cc(C(=O)Nc3cc(C(=O)O)cc(C(=O)O)c3)cc1Cc1cc(C(=O)Nc3cc(C(=O)O)cc(C(=O)O)c3)cc(c1OCCCC)Cc1cc(C(=O)Nc3cc(C(=O)O)cc(C(=O)O)c3)cc(c1OCCCC)Cc1cc(C(=O)Nc3cc(C(=O)O)cc(C(=O)O)c3)cc(c1OCCCC)C2 [GFB201] | – |
| – | – | CCCCOc1c2cc(C(=O)Nc3cc(C(=O)NC(CC(=O)O)C(=O)O)cc(C(=O)NC(CC(=O)O)C(=O)O)c3)cc1Cc1cc(C(=O)Nc3cc(C(=O)NC(CC(=O)O)C(=O)O)cc(C(=O)NC(CC(=O)O)C(=O)O)c3)cc(c1OCCCC)Cc1cc(C(=O)Nc3cc(C(=O)NC(CC(=O)O)C(=O)O)cc(C(=O)NC(CC(=O)O)C(=O)O)c3)cc(c1OCCCC)Cc1cc(C(=O)Nc3cc(C(=O)NC(CC(=O)O)C(=O)O)cc(C(=O)NC(CC(=O)O)C(=O)O)c3)cc(c1OCCCC)C2 (stereo not shown) [GFB202] | IC50 (VEGFR (Flk-1/KDR); [4]): 11.3 ± 2.9 µM; IC50 (PDGFR; [5]): 1.39 ± 0.38 µM |
| 19.8 ± 2.9 | – | CCCCOc1c2cc(C(=O)Nc3cc(C(=O)NCCC(=O)O)cc(C(=O)NCCC(=O)O)c3)cc1Cc1cc(C(=O)Nc3cc(C(=O)NCCC(=O)O)cc(C(=O)NCCC(=O)O)c3)cc(c1OCCCC)Cc1cc(C(=O)Nc3cc(C(=O)NCCC(=O)O)cc(C(=O)NCCC(=O)O)c3)cc(c1OCCCC)Cc1cc(C(=O)Nc3cc(C(=O)NCCC(=O)O)cc(C(=O)NCCC(=O)O)c3)cc(c1OCCCC)C2 [GFB203] | – |
| – | – | CCCCOc1c2cc(C(=O)Nc3cc(C(=O)NC(CC(=O)O)C(=O)O)cc(C(=O)NC(Cc4ccc(O)cc4)C(=O)O)c3)cc1Cc1cc(C(=O)Nc3cc(C(=O)NC(CC(=O)O)C(=O)O)cc(C(=O)NC(Cc4ccc(O)cc4)C(=O)O)c3)cc(c1OCCCC)Cc1cc(C(=O)Nc3cc(C(=O)NC(CC(=O)O)C(=O)O)cc(C(=O)NC(Cc4ccc(O)cc4)C(=O)O)c3)cc(c1OCCCC)Cc1cc(C(=O)Nc3cc(C(=O)NC(CC(=O)O)C(=O)O)cc(C(=O)NC(Cc4ccc(O)cc4)C(=O)O)c3)cc(c1OCCCC)C2 (stereo not shown) [GFB205] | IC50 (VEGFR (Flk-1/KDR); [4]): 5.86 ± 0.68 µM |
| 18.4 ± 2.72 | – | CCCCOc1c2cc(C(=O)Nc3cc(C(=O)NCCC(=O)O)cc(C(=O)N[C@@H](Cc4ccc(O)cc4)C(=O)O)c3)cc1Cc1cc(C(=O)Nc3cc(C(=O)NCCC(=O)O)cc(C(=O)N[C@@H](Cc4ccc(O)cc4)C(=O)O)c3)cc(c1OCCCC)Cc1cc(C(=O)Nc3cc(C(=O)NCCC(=O)O)cc(C(=O)N[C@@H](Cc4ccc(O)cc4)C(=O)O)c3)cc(c1OCCCC)Cc1cc(C(=O)Nc3cc(C(=O)NCCC(=O)O)cc(C(=O)N[C@@H](Cc4ccc(O)cc4)C(=O)O)c3)cc(c1OCCCC)C2 [GFB207] | – |
| – | 0.84 ± 0.06 µM | CCCCOc1c2cc(C(=O)Nc3cc(C(=O)NCCC(=O)O)cc(C(=O)N[C@@H](Cc4ccc(OCC(=O)O)cc4)C(=O)O)c3)cc1Cc1cc(C(=O)Nc3cc(C(=O)NCCC(=O)O)cc(C(=O)N[C@@H](Cc4ccc(OCC(=O)O)cc4)C(=O)O)c3)cc(c1OCCCC)Cc1cc(C(=O)Nc3cc(C(=O)NCCC(=O)O)cc(C(=O)N[C@@H](Cc4ccc(OCC(=O)O)cc4)C(=O)O)c3)cc(c1OCCCC)Cc1cc(C(=O)Nc3cc(C(=O)NCCC(=O)O)cc(C(=O)N[C@@H](Cc4ccc(OCC(=O)O)cc4)C(=O)O)c3)cc(c1OCCCC)C2 [GFB208] | – |
| 5.58 ± 4.11 | 2.9 µM and 2.91 µM | CCCCOc1c2cc(C(=O)Nc3cc(C(=O)O)cc(C(=O)OC)c3)cc1Cc1cc(C(=O)Nc3cc(C(=O)O)cc(C(=O)OC)c3)cc(c1OCCCC)Cc1cc(C(=O)Nc3cc(C(=O)O)cc(C(=O)OC)c3)cc(c1OCCCC)Cc1cc(C(=O)Nc3cc(C(=O)O)cc(C(=O)OC)c3)cc(c1OCCCC)C2 [GFB209] | – |
| – | – | CCCCOc1c2cc(C(=O)Nc3cc(C(=O)O)cc(C(=O)OC(C)(C)C)c3)cc1Cc1cc(C(=O)Nc3cc(C(=O)O)cc(C(=O)OC(C)(C)C)c3)cc(c1OCCCC)Cc1cc(C(=O)Nc3cc(C(=O)O)cc(C(=O)OC(C)(C)C)c3)cc(c1OCCCC)Cc1cc(C(=O)Nc3cc(C(=O)O)cc(C(=O)OC(C)(C)C)c3)cc(c1OCCCC)C2 [GFB210] | IC50 (VEGFR (Flk-1/KDR); [4]): 4.54 ± 0.55 µM; IC50 (PDGFR; [5]): 0.35 ± 0.31 µM |
| – | – | CCCCOc1c2cc(C(=O)Nc3cc(C(=O)O)cc(C(=O)NCc4ccccc4)c3)cc1Cc1cc(C(=O)Nc3cc(C(=O)O)cc(C(=O)NCc4ccccc4)c3)cc(c1OCCCC)Cc1cc(C(=O)Nc3cc(C(=O)O)cc(C(=O)NCc4ccccc4)c3)cc(c1OCCCC)Cc1cc(C(=O)Nc3cc(C(=O)O)cc(C(=O)NCc4ccccc4)c3)cc(c1OCCCC)C2 [GFB211] | IC50 (VEGFR (Flk-1/KDR); [4]): 13 ± 0.49 µM; IC50 (PDGFR; [5]): 1.34 ± 0.32 µM |
| > 10 | 0.29 ± 0.08 µM | CCCCOc1c2cc(C(=O)Nc3cc(C(=O)O)cc(C(=O)NC4CCCCC4)c3)cc1Cc1cc(C(=O)Nc3cc(C(=O)O)cc(C(=O)NC4CCCCC4)c3)cc(c1OCCCC)Cc1cc(C(=O)Nc3cc(C(=O)O)cc(C(=O)NC4CCCCC4)c3)cc(c1OCCCC)Cc1cc(C(=O)Nc3cc(C(=O)O)cc(C(=O)NC4CCCCC4)c3)cc(c1OCCCC)C2 [GFB212] | – |
| 0.85 ± 0.44 | 0.57 ± 0.06 µM | CCCCOc1c2cc(C(=O)Nc3cc(C(=O)O)cc(C(=O)NC(C)(C)C)c3)cc1Cc1cc(C(=O)Nc3cc(C(=O)O)cc(C(=O)NC(C)(C)C)c3)cc(c1OCCCC)Cc1cc(C(=O)Nc3cc(C(=O)O)cc(C(=O)NC(C)(C)C)c3)cc(c1OCCCC)Cc1cc(C(=O)Nc3cc(C(=O)O)cc(C(=O)NC(C)(C)C)c3)cc(c1OCCCC)C2 [GFB213] | – |
| > 10 | 0.17 ± 0.02 µM | CCCCOc1c2cc(C(=O)Nc3cc(C(=O)O)cc(C(=O)NC(C)C)c3)cc1Cc1cc(C(=O)Nc3cc(C(=O)O)cc(C(=O)NC(C)C)c3)cc(c1OCCCC)Cc1cc(C(=O)Nc3cc(C(=O)O)cc(C(=O)NC(C)C)c3)cc(c1OCCCC)Cc1cc(C(=O)Nc3cc(C(=O)O)cc(C(=O)NC(C)C)c3)cc(c1OCCCC)C2 [GFB214] | – |
| > 10 | 0.21 ± 0.13 µM | CCCCOc1c2cc(C(=O)Nc3cc(C(=O)O)cc(C(=O)NCCC)c3)cc1Cc1cc(C(=O)Nc3cc(C(=O)O)cc(C(=O)NCCC)c3)cc(c1OCCCC)Cc1cc(C(=O)Nc3cc(C(=O)O)cc(C(=O)NCCC)c3)cc(c1OCCCC)Cc1cc(C(=O)Nc3cc(C(=O)O)cc(C(=O)NCCC)c3)cc(c1OCCCC)C2 [GFB215] | – |
| > 10 | 0.15 ± 0.01 µM | C=CCNC(=O)c1cc(NC(=O)c2cc3c(OCCCC)c(c2)Cc2cc(C(=O)Nc4cc(C(=O)O)cc(C(=O)NCC=C)c4)cc(c2OCCCC)Cc2cc(C(=O)Nc4cc(C(=O)O)cc(C(=O)NCC=C)c4)cc(c2OCCCC)Cc2cc(C(=O)Nc4cc(C(=O)O)cc(C(=O)NCC=C)c4)cc(c2OCCCC)C3)cc(C(=O)O)c1 [GFB216] | – |
| – | – | CCCCOc1c2cc(C(=O)Nc3cc(C(=O)OCc4ccccc4)cc(C(=O)OC(C)(C)C)c3)cc1Cc1cc(C(=O)Nc3cc(C(=O)OCc4ccccc4)cc(C(=O)OC(C)(C)C)c3)cc(c1OCCCC)Cc1cc(C(=O)Nc3cc(C(=O)OCc4ccccc4)cc(C(=O)OC(C)(C)C)c3)cc(c1OCCCC)Cc1cc(C(=O)Nc3cc(C(=O)OCc4ccccc4)cc(C(=O)OC(C)(C)C)c3)cc(c1OCCCC)C2 [GFB217] | IC50 (VEGFR (Flk-1/KDR); [4]): > 10 µM; inhibition of PDGF signaling, in words (PDGFR): did not have a significant activity; IC50 (PDGFR; [5]): > 10 µM |
| > 10 | 0.54 ± 0.15 µM | CCCCOc1c2cc(C(=O)Nc3cc(C(=O)O)cc(C(=O)Nc4ccncc4)c3)cc1Cc1cc(C(=O)Nc3cc(C(=O)O)cc(C(=O)Nc4ccncc4)c3)cc(c1OCCCC)Cc1cc(C(=O)Nc3cc(C(=O)O)cc(C(=O)Nc4ccncc4)c3)cc(c1OCCCC)Cc1cc(C(=O)Nc3cc(C(=O)O)cc(C(=O)Nc4ccncc4)c3)cc(c1OCCCC)C2 [GFB218] | – |
| > 10 | 0.53 ± 0.15 µM | CCCCOc1c2cc(C(=O)Nc3cc(C(=O)O)cc(C(=O)Nc4cccc5ccccc45)c3)cc1Cc1cc(C(=O)Nc3cc(C(=O)O)cc(C(=O)Nc4cccc5ccccc45)c3)cc(c1OCCCC)Cc1cc(C(=O)Nc3cc(C(=O)O)cc(C(=O)Nc4cccc5ccccc45)c3)cc(c1OCCCC)Cc1cc(C(=O)Nc3cc(C(=O)O)cc(C(=O)Nc4cccc5ccccc45)c3)cc(c1OCCCC)C2 [GFB219] | – |
| – | – | Cc1cc(C)c(/C=C2\C(=O)Nc3ccccc32)[nH]1 [SU5416] | effect on pancreatic tumors (pancreatic tumors): suppresses early, but not late, development of pancreatic tumors |
| – | – | Cc1[nH]c(/C=C2\C(=O)Nc3ccccc32)c(C)c1CCC(=O)O [SU6668] | effect on pancreatic tumors (pancreatic tumors): induced regression of advanced pancreatic tumor at late stage of development |
| – | – | AVASTIN: humanized anti-VEGF monoclonal antibody | increase of median survival [1]: 5 months |

Reference: patent US7718700B2, “Growth factor-binding compounds and methods of use” (Yale University, priority 2004, dated 2010)
